Measured values published in patent publication US9914908B2, “Method of introducing a toxin or dye into mammalian pluripotent cells using rBC2LCN” (National Institute of Advanced Industrial Science and …, priority 2013, dated 2018).

Columns and labels:
Conditions in all cases: read-out: dissociation constant (Kd)
[1] = molecular target: T1, rBC2LCN-ETA fusion protein, rBC2LCN-(GSGGG)2-ETA (Burkholderia cenocepacia rBC2LCN, SEQ ID NO: 1, fused through spacer GSGGG, SEQ ID NO: 3, to cell-killing domain of Pseudomonas aeruginosa exotoxin A, SEQ ID NO: 2) (Burkholderia cenocepacia, UniProt B4EH86); assay: Binding affinity of rBC2LCN-ETA fusion protein to sugar chain ligands by frontal affinity chromatography
T1 construct: E. coli
From the text: (§1) The binding affinities of rBC2LCN-ETA and wild-type rBC2LCN to “Fucα1-2Galβ1-3GlcNAc (H type 1)” and “Fucα1-2Galβ1-3GalNAc (H type 3)” as sugar chain ligands for rBC2LCN were examined by frontal affinity chromatography (Non Patent Literature 8). The results are shown below (Table 1).

[2] = molecular target: T2, rBC2LCN (recombinant BC2LCN lectin, N-terminal domain of BC2L-C protein, Burkholderia cenocepacia), wild-type, SEQ ID NO: 1 (Burkholderia cenocepacia, UniProt B4EH86); assay: Binding affinity of wild-type rBC2LCN to sugar chain ligands by frontal affinity chromatography
T2 sequence (B4EH86 1-156): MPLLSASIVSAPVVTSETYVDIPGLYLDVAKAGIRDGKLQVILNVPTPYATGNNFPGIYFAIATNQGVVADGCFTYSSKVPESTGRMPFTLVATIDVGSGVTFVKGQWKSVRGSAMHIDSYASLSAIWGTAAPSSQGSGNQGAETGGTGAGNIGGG
From the text: as §1

[3] = molecular target: T3, rBC2LCN-ETA fusion protein, rBC2LCN-(GSGGG)2-ETA (Burkholderia cenocepacia rBC2LCN, SEQ ID NO: 1, fused through spacer GSGGG, SEQ ID NO: 3, to cell-killing doma (Burkholderia cenocepacia, UniProt B4EH86)); assay: Binding affinity of rBC2LCN-ETA fusion protein to sugar chain ligands by frontal affinity chromatography; set-up: species or system Burkholderia cenocepacia / Pseudomonas aeruginosa
T3 construct: E. coli
From the text: as §1

Row | SMILES | Kd [1] | Kd [2] | Kd [3]
1 | CC(=O)N[C@H]1[C@H](Oc2ccc([N+](=O)[O-])cc2)O[C@H](CO)[C@@H](O)[C@@H]1O[C@@H]1O[C@H](CO)[C@H](O)[C@H](O)[C@H]1O[C@@H]1O[C@@H](C)[C@@H](O)[C@@H](O)[C@@H]1O [H type1-pNP] | 8.3 µM | 9.9 µM | 
2 | CC(=O)N[C@H]1[C@@H](Oc2ccc([N+](=O)[O-])cc2)O[C@H](CO)[C@H](O)[C@@H]1O[C@@H]1O[C@H](CO)[C@H](O)[C@H](O)[C@H]1O[C@@H]1O[C@@H](C)[C@@H](O)[C@@H](O)[C@@H]1O [H type3-pNP] |  | 32.3 µM | 25.4 µM
3 | CC(=O)N[C@H]1[C@@H](Oc2ccc([N+](=O)[O-])cc2)O[C@H](CO)[C@H](O)[C@@H]1O[C@@H]1O[C@H](CO)[C@H](O)[C@H](O)[C@H]1O[C@@H]1O[C@@H](C)[C@@H](O)[C@@H](O)[C@@H]1O [H type 3, Fucα1-2Galβ1-3GalNAc] |  | 25.4 µM | 32.3 µM
